Where two headings read alike, the source gives them in different places.
Assays:
hyperactive platelets = experiment: Assessment of efficacy of antiplatelet treatment in patients by Rapid Thrombochek test and microscopic method; format: in vivo, human; settings: twenty myocardial infarction patients on daily aspirin for minimum 3 weeks; both methods
Experimental: Tests were carried out on healthy adults (male and female) and the normals were established. The test was carried out on patients of diabetes mellitus and known cases of myocardial infarction. […] All the smears were prepared by taking a drop of blood on slide and making a smear by cover slide method of smear preparation. All the smears were fixed in alcohol after drying and stained with […] stain and examined under oil immersion lense. Platelets free and in aggregates were counted and percentage of aggregation was worked out. TWENTY PATIENTS OF MYOCARDIAL INFARCTION ON DAILY ASPIRIN FOR MINIMUM PERIOD OF 3 WEEKS WERE TESTED BY […] WELL AS BY MICROSCOPIC METHOD FOR ASSESSMENT OF EFFICACY OF ANTIPLATELET TREATMENT.

platelets = experiment: Platelet aggregation in blood anticoagulated with D-Phe-Pro-Arg chloromethyl ketone dihydrochloride; format: cell-based; settings: aggregation caused by addition of agonist
Description: Heparin, Na Citrate 3.2% can also be used instead of citrate 3.8% as anticoagulant to study platelet hyperaggregation.

platelets in whole blood = settings: 0.5 uM Epinephrine, 180 seconds
Experimental: Collecting a blood sample from an individual in EDTA anticoagulant vacutainer first and then taking blood in trisodium citrate-anticoagulant vacutainer with the same venipuncture and mixing both the samples with the respective anticoagulants at least 15 to 20 times by inversion and allowing EDTA sample to stand at room temperature for a minimum of 20 minutes and then within two hours of collection, the EDTA sample is analysed on an automated hematology analyser to determine the platelet count and appropriate aliquote of citrate sample is taken in a plastic cuvette with a magnetic bar and stirred for 3 minutes at 37° C. and a weak agonist of platelet aggregation in low concentration is added to stirred citrate sample and further stirred for another three minutes at 37° C. At the end of these last three minutes the stirred citrate agonist treated sample is analysed on an hematology analyser for platelet count. Difference between EDTA platelet count and agonist treated stirred citrate platelet count, percentage of platelet aggregation is calculated by dividing the difference by EDTA platelet count and multiplying it by 100.
All samples were collected in the morning when the subjects were fasting. Blood was collected in Plain vaccutainer then EDTA vacutainer by a clean venipuncture using a 20 G needle and then in the 3.8% Na citrate (1:10 dil) vacutainer. Both these anticoagulated blood samples were thoroughly mixed with respective anticoagulants by inversion (15 to 20 times) and the EDTA sample was made to stand at room temperature for 20 minutes after collection and only then analysed for platelet count measurements on the automated hematology analyser. Both samples were analysed within two hours of collection. […]

## CC(=O)Oc1ccccc1C(=O)O [ASPIRIN, Aspirin]
Hyperactive platelets
  Efficacy of antiplatelet treatment (hyperactive platelets above normal range): LESS THAN EFFECTIVE IN FOUR OF THEM

## D-Phe-Pro-Arg chloromethyl ketone dihydrochloride
platelets
  Effect on agonist-induced platelet aggregation when used as anticoagulant: substantial disaggregation of platelet aggregation

## CNC[C@H](O)c1ccc(O)c(O)c1 [Epinephrine, Epinephrine bitartrate]
Platelets in whole blood; Diabetes patients
  Platelet Aggregation % at 180 sec. at 37° C., mean (SD): 35 (12) %
Platelets in whole blood; MI (myocardial infarction) patients
  Platelet Aggregation % at 180 sec. at 37° C., mean (SD): 29 (11) %
Platelets in whole blood; Normal group (healthy adults)
  Platelet Aggregation % at 180 sec. at 37° C., mean (SD): 14.5 (7) %
